Results published in patent publication US12377175B2, “Trifunctional constructs with tunable pharmacokinetics useful in imaging and anti-tumor therapies” (Cornell University, priority 2016, dated 2025).

System: LNCaP xenograft tumor-bearing mice
Assay: Biodistribution of 225Ac-macropa-RPS-070 in LNCaP xenograft mice
Format: in vivo, mouse
Conditions: 4-96 h; no accumulation of 225Ac in liver, spleen, bone
Experimental: Cell Culture. […] Cell culture supplies were from Invitrogen unless otherwise noted.
Inoculation of Mice with Xenografts. All animal studies were approved by the Institutional Animal Care and Use Committee of Weill Cornell Medicine and were undertaken in accordance with the guidelines set forth by the USPHS Policy on Humane Care and Use of Laboratory Animals. Animals were housed under standard conditions in approved facilities with 12 h light/dark cycles. Food and water was provided ad libitum throughout the course of the studies. Hairless male nu/nu mice were purchased from the Jackson Laboratory. For inoculation in mice, LNCaP cells were suspended at 4×10^7 cells/mL in a 1:1 mixture of PBS:Matrigel (BD Biosciences). Each mouse was injected in the left flank with 0.25 mL of the cell suspension. Biodistributions were conducted when tumors were in the range 100-400 mm^3.
Biodistribution of […] in LNCaP xenograft mice. Fifteen LNCaP xenograft tumor-bearing mice (5 per time point) were injected intravenously with a bolus injection of 85-95 kBq and 100 ng ([…]) of each ligand. The mice were sacrificed by cervical dislocation at 4, 24 and 96 h post injection. A blood sample was removed, and a full biodistribution study was conducted on the following organs (with contents): heart, lungs, liver, small intestine, large intestine, stomach, spleen, pancreas, kidneys, muscle, bone, and tumor. Tissues were weighed and counted on a 2470 Wizard Automatic Gamma Counter (Perkin Elmer). 1% ID/mL samples were counted prior to and following each set of tissue samples to enable decay correction to be undertaken. Counts were corrected for decay and for activity injected, and tissue uptake was expressed as percent injected dose per gram (% ID/g). Standard error measurement was calculated for each data point.

## O=C(O)CC[C@H](NC(=O)N[C@@H](CCCCNC(=O)Nc1cccc(-c2cn(CCOCCOCCOCCOCCOCCOCCC(=O)N[C@@H](CCCCNC(=S)Nc3cc(CN4CCOCCOCCN(Cc5cccc(C(=O)O)n5)CCOCCOCC4)nc(C(=O)O)c3)C(=O)N[C@@H](CCCCNC(=O)Cc3ccc(I)cc3)C(=O)O)nn2)c1)C(=O)O)C(=O)O [macropa-RPS-070, (((S)-1-Carboxy-5-(3-(3-(1-((23S,26S)-26-carboxy-23-(4-(3-(2-carboxy-6-((16-((6-carboxypyridin-2-yl)methyl)-1,4,10,13-tetraoxa-7,16-diazacyclooctadecan-7-yl)methyl)pyridin-4-yl)thioureido)butyl)-33-(4-iodophenyl)-21,24,32-trioxo-3,6,9,12,15,18-hexaoxa-22,25,31-triazatritriacontyl)-1H-1,2,3-triazol-4-yl)phenyl)ureido)pentyl)carbamoyl)-L-glutamic acid]
  retention of 225Ac by the construct in vivo: stably retain
